Test results from article PMC8688847, “Implications of Membrane Binding by the Fe-S Cluster-Containing N-Terminal Domain in the Drosophila Mitochondrial Replicative DNA Helicase” (Frontiers in Genetics, 2021).

How the values were obtained:
ΔN-helicase (P66) = target: T1, ΔN-helicase (P66) (Homo sapiens, UniProt Q96RR1); test: malachite green ATPase assay; assay type: biochemical; details: 8 mM Mg acetate, pH 7.5, room temperature
T1 construct: gene TWNK; variant lacking the N-terminus, termed P66 in Ziebarth et al. 2007
T1 sequence (Q96RR1 85-684 limits assumed): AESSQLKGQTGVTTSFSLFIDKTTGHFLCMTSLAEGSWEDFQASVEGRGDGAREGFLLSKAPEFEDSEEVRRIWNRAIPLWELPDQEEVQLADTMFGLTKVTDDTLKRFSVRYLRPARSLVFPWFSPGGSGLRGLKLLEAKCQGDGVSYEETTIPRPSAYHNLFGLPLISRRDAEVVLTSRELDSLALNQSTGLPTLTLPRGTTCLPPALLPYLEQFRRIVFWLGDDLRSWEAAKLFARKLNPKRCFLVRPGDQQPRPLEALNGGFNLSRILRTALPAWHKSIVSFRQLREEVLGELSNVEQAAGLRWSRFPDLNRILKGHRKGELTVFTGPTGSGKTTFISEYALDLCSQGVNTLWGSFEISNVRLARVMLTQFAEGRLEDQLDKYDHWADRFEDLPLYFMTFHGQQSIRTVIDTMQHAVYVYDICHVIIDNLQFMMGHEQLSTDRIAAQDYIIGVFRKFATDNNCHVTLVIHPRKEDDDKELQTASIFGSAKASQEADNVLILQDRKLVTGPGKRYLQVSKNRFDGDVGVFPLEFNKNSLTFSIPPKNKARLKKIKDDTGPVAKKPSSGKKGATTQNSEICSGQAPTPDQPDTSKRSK

[1] = target: T2, FL Hs mtDNA helicase (TWINKLE) (Homo sapiens, UniProt Q96RR1); test: malachite green ATPase assay; assay type: biochemical; details: 8 mM Mg acetate, pH 7.5, room temperature
T2 construct: gene TWNK; full-length, recombinant, Ni-NTA purified
T2 sequence (Q96RR1 32-684): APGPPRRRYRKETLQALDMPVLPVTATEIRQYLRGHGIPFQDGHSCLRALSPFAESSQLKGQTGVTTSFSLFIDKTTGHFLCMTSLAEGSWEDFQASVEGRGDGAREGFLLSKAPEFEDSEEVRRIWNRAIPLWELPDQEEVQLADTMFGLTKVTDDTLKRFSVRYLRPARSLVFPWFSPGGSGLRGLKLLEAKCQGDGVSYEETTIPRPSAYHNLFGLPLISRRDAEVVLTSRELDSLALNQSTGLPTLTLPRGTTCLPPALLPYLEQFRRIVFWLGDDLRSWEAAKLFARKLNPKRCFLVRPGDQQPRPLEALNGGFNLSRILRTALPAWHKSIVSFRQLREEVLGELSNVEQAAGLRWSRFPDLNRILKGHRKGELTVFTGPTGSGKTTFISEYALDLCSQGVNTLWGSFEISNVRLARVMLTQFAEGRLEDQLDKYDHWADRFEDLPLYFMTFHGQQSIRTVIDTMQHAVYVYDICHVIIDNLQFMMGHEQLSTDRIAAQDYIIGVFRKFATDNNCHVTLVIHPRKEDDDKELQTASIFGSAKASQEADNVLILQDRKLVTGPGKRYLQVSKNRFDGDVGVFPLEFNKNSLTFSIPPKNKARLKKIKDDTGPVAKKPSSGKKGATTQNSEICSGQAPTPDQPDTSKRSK

`Nc1ncnc2c1ncn2[C@@H]1O[C@H](COP(=O)(O)OP(=O)(O)OP(=O)(O)O)[C@@H](O)[C@H]1O` [ATP] was tested, and the “malachite green ATPase assay” value (ΔN-helicase (P66)) was “the ATPase activity of ΔN-helicase, termed P66” and the “malachite green ATPase assay” value [1] was “ATP hydrolysis of FL helicase was increased with added calf thymus DNA”.
